Data on eleven molecules can be found in patent US8592446B2, “[1,10]-phenanthroline derivatives for the treatment of neurodegenerative or haematological diseases” (Noscira, S.A., priority 2007, dated 2013).

Holding throughout (assay type): cell-based
Data set [1] deals with SH-SY5Y human neuroblastoma cells. Nature of the data set: Toxicity: LDH activity release in SH-SY5Y cells. To be noted: 24 h; for Maximum concentration tested for toxicity: increasing concentrations from 1 μM up to 1 mM. As for the experimental part: The potential effects on cell viability of the assayed compounds are assayed in SH-SY5Y human neuroblastoma cells, by quantification of Lactate dehydrogenase (LDH) activity release. SH-SY5Y human neuroblastoma cells are seeded into 96-well culture plates at 10^4 cells/well. The medium is then removed and the cells incubated with different concentrations of the compounds during 24 h. The compounds are tested at increasing concentrations starting from 1 μM, in fresh culture medium, in order to find the minimum concentration at which the compounds are toxic, up to a maximum of 1 mM. After 24 h, the medium is removed and cells attached to the bottom of the well are lysed by adding 50 μl of Krebs-Hepes; Triton X-100 1% during 5 minutes at room temperature. For LDH release quantification, the Roche cytotoxicity detection kit (Cat.
No. 11 644 793 001) is used. The LDH activity is measured by its absorbance at 492 nm with reference wavelength 620 nm.
In Table 1, for each compound the maximum concentration at which toxicity was tested is indicated in the second column. In the third column, it is indicated whether at this maximum concentration the compound was toxic or not. All the compounds, with the exception of Compound 3, resulted non-toxic at the concentration for which activity was found, in most of the cases even at a 1000-fold concentration. Thus, the compounds may be considered non-toxic.

The test system is the same in data set [2]. Briefly: Protection against hydrogen peroxide-induced cell death (LDH). The note with it: compound 1 h before H2O2 100 μM, 24 h; for minimal effective concentration: Homo sapiens, SH-SY5Y, read-out: Protect. H2O2 (minimum concentration for which protection was determined). Here is the method:
The aim of this assay is to determine the neuroprotective effect of the compounds of formula (I), when human neuroblastoma cells are exposed to oxidative stress induced by hydrogen peroxide, which is highly deleterious to the cell and its accumulation causes oxidation of cellular targets such as DNA, proteins, and lipids leading to mutagenesis and cell death.
SH-SY5Y human neuroblastoma cells are seeded into 96-well culture plate at a density of 10^4 cells/well. Cells are exposed to different concentrations of the compound one hour before the treatment with H2O2 100 μM during 24 h. 5 mM N-acetylcysteine (NAC), a known anti-oxidant agent was used as a positive control, and preincubated 1 hour before the treatment with H2O2. After 24 h, the medium is removed and cells attached to the bottom of the well are lysed by adding 50 μl of Triton X-100 1% in Krebs-Hepes during 5 minutes at room temperature. For LDH release quantification, Roche cytotoxicity detection kit (Cat. No. 11 644 793 001) was used.

For data set [3] the test system is unchanged. Nature of the data set: Protection against 6-OHDA-induced cell death, condition A (10% foetal bovine serum). To be noted: preincubated 2 hours, 6-OHDA 75 μM 16 hours, read-out: Protect. 6-OHDA (+ FBS) (minimum concentration with neuroprotective effect). The text has this: (§1) The aim of this experiment is to determine the protective effect of the compounds of formula (1) against the toxicity caused by 6-OHDA. This toxin induces a cell death similar to which occurs in Parkinson's disease, destroying dopaminergic neurons (“MPTP and 6-hydroxydopamine-induced neurodegeneration as models for Parkinson's disease: neuroprotective strategies”; Grunblatt E, et al.; J Neurol. 2000 Apr; 247 Suppl 2:II95-102).
(§2) Two or three days before the experiment, the SH-SY5Y human neuroblastoma cells are seeded into 96-well culture plate at a density of 10^4 cells/well. Cells are exposed to the treatment with 6-OHDA and, finally, cell death is measured by LDH quantification. As positive control we used NAC.
• A) NAC and the compound of formula (I) are preincubated during 2 hours before the treatment with 6-OHDA 75 μM during 16 hours. The assay is performed in medium containing 10% Foetal bovine serum.
(§3) For each compound the minimum concentration of compound of formula (I) at which a neuroprotective effect is shown.

Data set [4] shares this test system. Briefly: Protection against 6-OHDA-induced cell death, condition B (no fetal bovine serum). To be noted: preincubated 1 hour, 6-OHDA 50 μM 24 hours, read-out: Protect. 6-OHDA (−FBS) (minimum concentration with neuroprotective effect).
Excerpt: as §1, §2
• B) NAC and the compound of formula (I) are preincubated during 1 hour before the treatment with 6-OHDA 50 μM during 24 hours. The assay is performed in a medium without any fetal bovine serum.
as §3

The subject of data set [5] is SH-SY5Y cells. Briefly: Neuroprotection against Aβ25-35 toxicity (LDH assay). The note with it: Homo sapiens, pre-treated 1 hour, 200 μM Aβ25-35 24 hours, read-out: Protect. beta-Amyloid25-35 (minimum concentration showing neuroprotection). As for the experimental part:
In order to evaluate potential neuroprotection of compounds, SH-SY5Y cells, cultured in 96-well plates, were pre-treated for 1 hour with the compound at different concentrations and then exposed 24 hours to 200 μM Aβ25-35 (Neosystem) to induce extensive oxidative stress and cell death. The ability of the compound of protecting against this toxicity is then evaluated by measuring intracellular LDH, using the colorimetric LDH assay.
It is widely accepted that the neurotoxic activity of Aβ resides within amino acids 25-35 (see e.g. Yankner B A et al., (1990) Neurotrophic and neurotoxic effects of amyloid β protein: reversal by tachykinin neuropeptides; Science 250:279-282).

For data set [6], the system named is Aβ (1-40) secretion by CHO7W cells (stably transfected with human APP751 wt cDNA). Nature of the data set: Inhibition of Aβ(1-40) secretion (ELISA, cellular supernatants). The note with it: Aβ 1-40 ELISA; for minimal effective concentration: read-out: Inhibition secretion beta-amyloid (minimum concentration). From the text:
To quantitate Aβ secretion ELISA-based method was used. The assay consists in detection of antigen by selective monoclonal anti-Aβ-antibodies at two different epitopes forming a “Sandwich-complex”, that is detected by colorimetric measure due to the binding of a secondary antibody conjugated with peroxidase that catalyses the conversion of a substrate or chromogen, TMB, into a coloured product, directly proportional to the peptide quantity in the sample. The Aβ production has been analyzed by ELISA, using a colorimetric commercial kit: Immunoassay Kit Human β Amyloid 1-40 (Biosource).
Aβ (1-40) were quantified from cellular supernatants. An APP-transfected cell line has been employed for the experiments: CHO7W (stably transfected with human APP751 wt cDNA). The cells were grown in a culture medium consisting of DMEM supplemented with 2% Fetal bovine serum, 1% penicillin-streptomycin, 1% L-glutamine and 200 μg/ml G418. Cells are seeded in 96-well culture microplate, at 5000 cells/well and treatment with different compounds at different concentrations is performed 24 hour after seeding.
OM99-2 (H-5108, Bachem), a BACE inhibitor, was used as Aβ secretion reduction positive control in all the Aβ secretion studies. The cells were treated with this compound at 3 μM concentration, culture media were collected at 24 hours.
In general terms: In an ELISA, binding on a coated surface is turned into a signal by an enzyme label.

Read-outs that look alike come from different tables or passages of the source.

For `COc1cc(C=NO)nc2c1ccc1cccnc12` [Compound 1, 4-Methoxy-[1,10]phenanthroline-2-carbaldehyde oxime], the “Maximum concentration tested for toxicity” value in data set [1] was found to be 1000 µM. Moreover, in data set [1] (at 1 mM), the “Toxic at maximum concentration tested (Yes/No)” value (“Toxic … (Yes/No)” below) is on record as “Yes”. Moreover, the minimal effective concentration in data set [2] was found to be 0.05 µM; in data set [3], 0.5 µM; in data set [4], 0.5 µM; in data set [5], 5 µM. Further, the “Inhibition secretion beta-amyloid (minimum concentration)” value in data set [6] is recorded as 0.01 mM.
In the case of `ON=Cc1cc(Sc2nncs2)c2ccc3cccnc3c2n1` [Compound 19, 4-([1,3,4]Thiadiazol-2-ylsulfanyl)-[1,10]phenanthroline-2-carbaldehyde oxime], the “Maximum concentration tested for toxicity” value in data set [1] came to 10 µM. The “Toxic … (Yes/No)” value in data set [1] (at 10 μM) is given as “Yes”. The minimal effective concentration in data set [2] was found to be 0.5 µM; in data set [6] (Homo sapiens, CHO-7W), 1 µM.
For the molecule `ON=Cc1cc(SCC(F)(F)F)c2ccc3cccnc3c2n1` [Compound 13, 4-(2,2,2-Trifluoro-ethylsulfanyl)-[1,10]phenanthroline-2-carbaldehyde oxime], in data set [1], the “Maximum concentration tested for toxicity” value is 1000 µM. Further, in data set [1] (at 1000 μM), the “Toxic … (Yes/No)” value was “No”. The minimal effective concentration came to 0.5 µM in data set [2]; 0.5 µM in data set [3]; 5 µM in data set [4]; 5 µM in data set [5]; 10 µM in data set [6] (Homo sapiens, CHO-7W).
Regarding `CCCSc1cc(/C=N/O)nc2c1ccc1cccnc12` [Compound 5, 4-Propylsulfanyl-[1,10]phenanthroline-2-carbaldehyde oxime], the “Maximum concentration tested for toxicity” value in data set [1] was found to be 1000 µM. For the same molecule, in data set [1] (at 1 mM), the “Toxic … (Yes/No)” value is “Yes”. In addition, the “Protect. H2O2 (minimum concentration for which protection was determined)” value in data set [2] is recorded as 5 nM. For the same molecule, the minimal effective concentration in data set [3] came out at 0.05 µM; in data set [4], 0.5 µM; in data set [6], 0.001 µM.
`CSc1cc(C=O)nc2c1ccc1cccnc12` [Compound 20, 4-Methylsulfanyl-[1,10]phenanthroline-2-carbaldehyde]: in data set [1], the “Maximum concentration tested for toxicity” value was 10 µM. The “Toxic … (Yes/No)” value in data set [1] (at 10 μM) is “Yes”. The minimal effective concentration was determined as 0.5 µM in data set [2] and 10 µM in data set [6] (Homo sapiens, CHO-7W).
Turning to `NCCOc1cc(/C=N/O)nc2c1ccc1cccnc12` [Compound 9, 4-(2-Amino-ethoxy)-[1,10]phenanthroline-2-carbaldehyde oxime], the “Maximum concentration tested for toxicity” value in data set [1] is 10 µM. Moreover, the “Toxic … (Yes/No)” value in data set [1] (at 10 μM) was “No”. Further, the minimal effective concentration in data set [2], in data set [3], in data set [4] and in data set [5] was 5 µM throughout. In addition, the “Inhibition secretion beta-amyloid (minimum concentration)” value in data set [6] is 10 mM.
Consider `ON=Cc1cc(Sc2nccs2)c2ccc3cccnc3c2n1` [Compound 15, 4-(Thiazol-2-ylsulfanyl)-[1,10]phenanthroline-2-carbaldehyde oxime], for which, in data set [1], the “Maximum concentration tested for toxicity” value was 100 µM. The “Toxic … (Yes/No)” value in data set [1] (at 100 μM) is given as “Yes”. The minimal effective concentration in data set [2] was 0.5 µM; in data set [6] (Homo sapiens, CHO-7W), 10 µM.
For `COC(=O)CSc1cc(C=NO)nc2c1ccc1cccnc12` [Compound 14, [2-(Hydroxyimino-methyl)-[1,10]phenanthrolin-4-ylsulfanyl]-acetic acid methyl ester], the “Maximum concentration tested for toxicity” value in data set [1] is 1000 µM. For the same molecule, in data set [1] (at 1000 μM), the “Toxic … (Yes/No)” value is “Yes”. Moreover, the minimal effective concentration in data set [2] was determined as 0.05 µM; in data set [3], 0.5 µM; in data set [4], 0.5 µM; in data set [5] it was 10 µM; in data set [6] (Homo sapiens, CHO-7W) it was 0.01 µM.
Consider `CCOc1cc(/C=N/O)nc2c1ccc1cccnc12` [Compound 6, 4-Ethoxy-[1,10]phenanthroline-2-carbaldehyde oxime], for which the “Maximum concentration tested for toxicity” value in data set [1] is 1000 µM. In addition, the “Toxic … (Yes/No)” value in data set [1] (at 1 mM) was “Yes”. In addition, the “Protect. H2O2 (minimum concentration for which protection was determined)” value in data set [2] stood at 5 nM. The minimal effective concentration was 0.05 µM in data set [3], 0.5 µM in data set [4], 10 µM in data set [5] and 0.01 µM in data set [6].
On to `O=Cc1cc(Cl)c2ccc3cccnc3c2n1` [Compound 3, 4-Chloro-[1,10]phenanthroline-2-carbaldehyde], for which the “Toxicity at the concentration for which activity was found” value in data set [1] is “exception”. Moreover, in data set [1], the “Maximum concentration tested for toxicity” value was found to be 10 µM. In addition, in data set [1] (at 10 μM), the “Toxic … (Yes/No)” value is “Yes”. Moreover, the minimal effective concentration in data set [2] and in data set [4] was 10 µM in each case.
Consider `Cc1cnc(Sc2cc(C=NO)nc3c2ccc2cccnc23)s1` [Compound 17, 4-(5-Methyl-thiazol-2-ylsulfanyl)-[1,10]phenanthroline-2-carbaldehyde oxime], for which, in data set [1], the “Maximum concentration tested for toxicity” value was 1000 µM. The “Toxic … (Yes/No)” value in data set [1] (at 1000 μM) is “Yes”. Moreover, the minimal effective concentration in data set [2] was 5 µM; in data set [6] (Homo sapiens, CHO-7W) it was 10 µM.
